Key:
HT29 = assay: NCI human tumor cell panel: HT29 (Colon Cancer); type: cell-based
OVCAR-3 = assay: NCI human tumor cell panel: OVCAR-3 (Ovarian Cancer); type: cell-based
M14 = assay: NCI human tumor cell panel: M14 (Melanoma); type: cell-based
NCI-H23 = assay: NCI human tumor cell panel: NCI-H23 (Non-Small Cell Lung Cancer); type: cell-based
ACHN = assay: NCI human tumor cell panel: ACHN (Renal Cancer); type: cell-based
UACC-257 = assay: NCI human tumor cell panel: UACC-257 (Melanoma); type: cell-based
SK-MEL-5 = assay: NCI human tumor cell panel: SK-MEL-5 (Melanoma); type: cell-based
MDA-MB-435 = assay: NCI human tumor cell panel: MDA-MB-435 (Breast Cancer); type: cell-based
NCI-H460 = assay: NCI human tumor cell panel: NCI-H460 (Non-Small Cell Lung Cancer); type: cell-based
TK-10 = assay: NCI human tumor cell panel: TK-10 (Renal Cancer); type: cell-based
NCI-H322M = assay: cells; type: cell-based; details: Homo sapiens, read-out: Log10 TGI (converted)
OVCAR-4 = assay: NCI human tumor cell panel: OVCAR-4 (Ovarian Cancer); type: cell-based; details: OVCAR-4, read-out: Log10 GI50 (converted)
HOP-62 = assay: NCI human tumor cell panel: HOP-62 (Non-Small Cell Lung Cancer); type: cell-based
SNB-19 = assay: NCI human tumor cell panel: SNB-19 (CNS Cancer); type: cell-based
CCRF-CEM = assay: NCI human tumor cell panel: CCRF-CEM (Leukemia); type: cell-based
SF-295 = assay: NCI human tumor cell panel: SF-295 (CNS Cancer); type: cell-based
SR = assay: NCI human tumor cell panel: SR (Leukemia); type: cell-based
UACC-62 = assay: NCI human tumor cell panel: UACC-62 (Melanoma); type: cell-based
MDA-N = assay: NCI human tumor cell panel: MDA-N (Breast Cancer); type: cell-based
MCF7 = assay: NCI human tumor cell panel: MCF7 (Breast Cancer); type: cell-based
MCF7/ADR-RES = assay: NCI human tumor cell panel: MCF7/ADR-RES (Breast Cancer); type: cell-based
A549/ATCC = assay: NCI human tumor cell panel: A549/ATCC (Non-Small Cell Lung Cancer); type: cell-based
HCT-116 = assay: NCI human tumor cell panel: HCT-116 (Colon Cancer); type: cell-based
HS 578T = assay: NCI human tumor cell panel: HS 578T (Breast Cancer); type: cell-based; details: read-out: Log10 TGI (converted)
SK-MEL-28 = assay: NCI human tumor cell panel: SK-MEL-28 (Melanoma); type: cell-based
SF-539 = assay: NCI human tumor cell panel: SF-539 (CNS Cancer); type: cell-based
MOLT-4 = assay: NCI human tumor cell panel: MOLT-4 (Leukemia); type: cell-based
HOP-92 = assay: NCI human tumor cell panel: HOP-92 (Non-Small Cell Lung Cancer)
MALME-3M = assay: NCI human tumor cell panel: MALME-3M (Melanoma); type: cell-based; details: Malme-3M
U251 = assay: NCI human tumor cell panel: U251 (CNS Cancer); type: cell-based
A498 = assay: NCI human tumor cell panel: A498 (Renal Cancer); type: cell-based
PC-3 = assay: NCI human tumor cell panel: PC-3 (Prostate Cancer); type: cell-based
[1] = read-out: Log10 GI50 (converted)
[2] = read-out: Log10 TGI (converted)

OCc1ccc(-c2ccc(-c3ccc(CO)[se]3)s2)s1 [compound 688830]
GI50 (HT29; HT-29, HT29, read-out: Log10 GI50 (converted)): 0.224 µM | IC (TGI) (HT29; HT-29, HT29, read-out: Log10 TGI (converted)): 43.7 µM | GI50 (OVCAR-3; OVCAR-3, read-out: Log10 GI50 (converted)): < 0.01 µM | IC (TGI) (OVCAR-3; OVCAR-3, read-out: Log10 TGI (converted)): 0.0562 µM | GI50 (M14; M14, read-out: Log10 GI50 (converted)): 37.2 µM | IC (TGI) (M14; M14, read-out: Log10 TGI (converted)): > 100 µM | GI50 (NCI-H23; NCI-H23, read-out: Log10 GI50 (converted)): 85.1 µM | IC (TGI) (NCI-H23; NCI-H23, read-out: Log10 TGI (converted)): > 100 µM | GI50 (ACHN; [1]): 20.9 µM | IC (TGI) (ACHN; [2]): > 100 µM | GI50 (UACC-257; UACC-257, read-out: Log10 GI50 (converted)): 0.0166 µM | IC (TGI) (UACC-257; UACC-257, read-out: Log10 TGI (converted)): 0.0457 µM | GI50 (SK-MEL-5; SK-MEL-5, read-out: Log10 GI50 (converted)): 36.3 µM | IC (TGI) (SK-MEL-5; SK-MEL-5, read-out: Log10 TGI (converted)): > 100 µM | GI50 (MDA-MB-435; MDA-MB-435, read-out: Log10 GI50 (converted)): > 100 µM | IC (TGI) (MDA-MB-435; MDA-MB-435, read-out: Log10 TGI (converted)): > 100 µM | GI50 (NCI-H460; NCI-H460, read-out: Log10 GI50 (converted)): 0.017 µM | IC (TGI) (NCI-H460; NCI-H460, read-out: Log10 TGI (converted)): 0.646 µM | GI50 (TK-10; TK-10, read-out: Log10 GI50 (converted)): < 0.01 µM | IC (TGI) (TK-10; TK-10, read-out: Log10 TGI (converted)): 0.0372 µM | IC (TGI) (NCI-H322M): 20 µM | GI50 (OVCAR-4): 0.105 µM | GI50 (HOP-62; HOP-62, read-out: Log10 GI50 (converted)): 0.0617 µM | IC (TGI) (HOP-62; HOP-62, read-out: Log10 TGI (converted)): 28.2 µM | GI50 (SNB-19; SNB-19, read-out: Log10 GI50 (converted)): 33.9 µM | IC (TGI) (SNB-19; SNB-19, read-out: Log10 TGI (converted)): 87.1 µM | GI50 (CCRF-CEM; [1]): 25.7 µM | IC (TGI) (CCRF-CEM; [2]): > 100 µM | GI50 (SF-295; SF-295, read-out: Log10 GI50 (converted)): 20.9 µM | IC (TGI) (SF-295; SF-295, read-out: Log10 TGI (converted)): 56.2 µM | GI50 (SR; [1]): 24.5 µM | IC (TGI) (SR; [2]): 72.4 µM | GI50 (UACC-62; UACC-62, read-out: Log10 GI50 (converted)): 0.0135 µM | IC (TGI) (UACC-62; UACC-62, read-out: Log10 TGI (converted)): > 100 µM | GI50 (MDA-N; [1]): 97.7 µM | IC (TGI) (MDA-N; [2]): > 100 µM | GI50 (MCF7; MCF7, read-out: Log10 GI50 (converted)): 0.0166 µM | IC (TGI) (MCF7; MCF7, read-out: Log10 TGI (converted)): > 100 µM | GI50 (MCF7/ADR-RES; [1]): 12.3 µM | IC (TGI) (MCF7/ADR-RES; [2]): > 100 µM | GI50 (A549/ATCC; [1]): 6.03 µM | IC (TGI) (A549/ATCC; [2]): 33.1 µM | GI50 (HCT-116; HCT-116, read-out: Log10 GI50 (converted)): 0.0275 µM | IC (TGI) (HCT-116; HCT-116, read-out: Log10 TGI (converted)): 17.4 µM | IC (TGI) (HS 578T): > 100 µM | GI50 (SK-MEL-28; SK-MEL-28, read-out: Log10 GI50 (converted)): > 100 µM | IC (TGI) (SK-MEL-28; SK-MEL-28, read-out: Log10 TGI (converted)): > 100 µM | GI50 (SF-539; SF-539, read-out: Log10 GI50 (converted)): 15.5 µM | IC (TGI) (SF-539; SF-539, read-out: Log10 TGI (converted)): 36.3 µM | GI50 (MOLT-4; MOLT-4, read-out: Log10 GI50 (converted)): 38.9 µM | IC (TGI) (MOLT-4; MOLT-4, read-out: Log10 TGI (converted)): > 100 µM | GI50 (HOP-92; HOP-92, read-out: Log10 GI50 (converted)): 28.2 µM | IC (TGI) (HOP-92; HOP-92, read-out: Log10 TGI): > 100 µM | GI50 (MALME-3M; [1]): 43.7 µM | IC (TGI) (MALME-3M; [2]): > 100 µM | GI50 (U251; U-251, U251, read-out: Log10 GI50 (converted)): 0.0832 µM | IC (TGI) (U251; U-251, U251, read-out: Log10 TGI (converted)): 20.9 µM | GI50 (A498; A498, read-out: Log10 GI50 (converted)): < 0.01 µM | IC (TGI) (A498; A498, read-out: Log10 TGI (converted)): 0.0245 µM | GI50 (PC-3; PC-3, read-out: Log10 GI50 (converted)): 30.9 µM | IC (TGI) (PC-3; PC-3, read-out: Log10 TGI (converted)): > 100 µM

— patent US20040063662A1, “Selenophene anti-tumor agents” (priority 1996, published 2004)
